Results taken from PubChem BioAssay AID588490 (The Scripps Research Institute Molecular Screening Center, 2011).
pIC50: −log10 of the molar value.

Tests used:
Test in all cases: PubChem AID 588490; call rule not given here
[1] = target: Protein-arginine deiminase type-1 (Homo sapiens) (UniProt Q9ULC6); details: recombinant PAD1-4, BAEE citrulline colorimetric absorbance; PAD1
[2] = target: Protein-arginine deiminase type-3 (Homo sapiens) (UniProt Q9ULW8); details: recombinant PAD1-4, BAEE citrulline colorimetric absorbance; PAD3
Chain of Protein-arginine deiminase type-3 (Homo sapiens) (Q9ULW8 whole entry, looked up): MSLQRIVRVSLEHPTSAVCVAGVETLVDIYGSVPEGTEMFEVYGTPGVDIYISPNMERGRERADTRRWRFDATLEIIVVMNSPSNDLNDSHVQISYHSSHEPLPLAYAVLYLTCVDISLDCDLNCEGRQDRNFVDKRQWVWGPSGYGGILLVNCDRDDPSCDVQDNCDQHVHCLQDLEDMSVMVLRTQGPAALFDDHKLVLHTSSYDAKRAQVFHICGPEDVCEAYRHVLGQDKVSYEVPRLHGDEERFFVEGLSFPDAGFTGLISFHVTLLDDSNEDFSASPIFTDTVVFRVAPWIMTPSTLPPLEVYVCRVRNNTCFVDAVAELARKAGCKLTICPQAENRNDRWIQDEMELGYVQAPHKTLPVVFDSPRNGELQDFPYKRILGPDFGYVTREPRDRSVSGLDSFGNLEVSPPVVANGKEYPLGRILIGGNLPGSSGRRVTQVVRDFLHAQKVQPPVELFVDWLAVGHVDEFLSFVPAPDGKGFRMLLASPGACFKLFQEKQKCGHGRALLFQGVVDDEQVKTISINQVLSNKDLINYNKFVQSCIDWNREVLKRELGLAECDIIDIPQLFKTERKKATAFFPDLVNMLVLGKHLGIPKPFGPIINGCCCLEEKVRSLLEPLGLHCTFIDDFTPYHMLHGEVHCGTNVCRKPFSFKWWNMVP

[3] = target: Protein-arginine deiminase type-2 (Homo sapiens) (UniProt Q9Y2J8); details: recombinant PAD1-4, BAEE citrulline colorimetric absorbance; PAD2
Chain of Protein-arginine deiminase type-2 (Homo sapiens) (Q9Y2J8 whole entry, looked up): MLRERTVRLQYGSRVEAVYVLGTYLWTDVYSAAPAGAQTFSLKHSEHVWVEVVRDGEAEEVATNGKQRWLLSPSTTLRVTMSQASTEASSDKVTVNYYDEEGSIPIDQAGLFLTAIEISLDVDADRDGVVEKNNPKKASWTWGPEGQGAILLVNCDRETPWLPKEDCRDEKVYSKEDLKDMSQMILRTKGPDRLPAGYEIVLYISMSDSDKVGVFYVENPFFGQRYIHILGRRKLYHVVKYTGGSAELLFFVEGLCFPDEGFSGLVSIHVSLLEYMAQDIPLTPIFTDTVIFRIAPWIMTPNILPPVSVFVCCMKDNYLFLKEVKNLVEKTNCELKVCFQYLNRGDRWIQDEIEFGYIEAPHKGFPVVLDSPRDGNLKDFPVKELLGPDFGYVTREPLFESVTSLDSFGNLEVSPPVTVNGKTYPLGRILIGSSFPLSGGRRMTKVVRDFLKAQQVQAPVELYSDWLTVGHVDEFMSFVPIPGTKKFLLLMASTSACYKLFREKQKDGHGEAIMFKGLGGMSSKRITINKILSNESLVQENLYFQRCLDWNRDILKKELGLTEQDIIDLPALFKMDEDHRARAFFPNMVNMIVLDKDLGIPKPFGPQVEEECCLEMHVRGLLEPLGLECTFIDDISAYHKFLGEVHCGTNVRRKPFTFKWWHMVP

Measured: pIC50

Chain of Protein-arginine deiminase type-1 (Homo sapiens) (Q9ULC6 whole entry, looked up): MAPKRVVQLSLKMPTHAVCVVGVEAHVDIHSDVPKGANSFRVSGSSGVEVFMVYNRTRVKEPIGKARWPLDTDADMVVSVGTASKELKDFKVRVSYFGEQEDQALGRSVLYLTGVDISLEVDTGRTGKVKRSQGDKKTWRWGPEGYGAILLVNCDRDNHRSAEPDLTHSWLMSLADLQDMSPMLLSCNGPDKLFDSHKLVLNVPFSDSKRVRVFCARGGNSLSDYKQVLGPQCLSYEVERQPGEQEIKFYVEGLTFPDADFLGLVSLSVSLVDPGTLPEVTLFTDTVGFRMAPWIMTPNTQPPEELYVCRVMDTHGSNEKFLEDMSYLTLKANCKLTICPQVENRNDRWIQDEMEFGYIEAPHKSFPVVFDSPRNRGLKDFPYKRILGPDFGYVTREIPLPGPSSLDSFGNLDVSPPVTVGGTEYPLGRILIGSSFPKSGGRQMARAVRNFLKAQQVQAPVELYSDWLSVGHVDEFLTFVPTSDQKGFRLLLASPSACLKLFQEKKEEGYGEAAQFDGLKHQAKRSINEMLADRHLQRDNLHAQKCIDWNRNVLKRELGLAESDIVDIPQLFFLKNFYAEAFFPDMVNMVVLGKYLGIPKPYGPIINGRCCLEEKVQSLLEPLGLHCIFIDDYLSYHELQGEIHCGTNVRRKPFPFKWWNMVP

NC1=CC(=O)c2ccc(-c3cccc(C(=O)O)n3)nc2C1=O
active: [1] 7.15 | [2] 6.15 | [3] 6.70
